This passage reports TGI results from PubChem BioAssay (NCI).

Some test systems named below: IGROV1 ovarian; NCI-H226 lung; MOLT-4 leukemia; SN12C renal; MDA-MB-435; SNB-75 CNS; NCI-H23 lung; CCRF-CEM leukemia; 786-0 renal; COLO 205 colon; A549 NSCLC; LOX IMVI melanoma; NCI-H522 lung; MALME-3M melanoma; HT29 colon; SW-620 colon; PC-3 prostate; HL-60(TB) leukemia; MDA-N; NCI/ADR-RES ovarian.
Holding throughout (assay): NCI-60 cell line screen, 48 h

Each structure is given as a SMILES string.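 Compound exposure: 48 hours, 5 concentrations, 96-well plates. TGI denotes the concentration required for complete inhibition of growth.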 Bounds are passed on as bounds.

Turning to `CC(C)(C)c1cc(C(=O)Nc2cc(Br)c(Br)cc2S(N)(=O)=O)cc(C(C)(C)C)c1O`, the TGI in the assay on IGROV1 ovarian amounted to 26.6 µM; with NCI-H226 lung it was 29.3 µM; in the assay on MOLT-4 leukemia, 18.8 µM; in the assay on SN12C renal, 21.2 µM; in the assay with MDA-MB-435 it was 24.7 µM; in the assay on SNB-75 CNS, 21.5 µM. Also, the TGI with NCI-H23 lung amounted to 40 µM; in the assay on CCRF-CEM leukemia it was 26.6 µM; with 786-0 renal, 23 µM; in the assay on COLO 205 colon, 19.1 µM; in the assay on A549 NSCLC, 21.3 µM; in the assay on LOX IMVI melanoma it was 19.4 µM. For the same compound, the TGI in the assay with NCI-H522 lung was determined as 24.3 µM; with MALME-3M melanoma, 26.6 µM; in the assay on HT29 colon it was 16.2 µM; with SW-620 colon, 21.4 µM; with PC-3 prostate, 22.9 µM.
With `CCNC(C)Cc1ccccc1` (configuration not stated), the TGI with HL-60(TB) leukemia, with IGROV1 ovarian, with NCI-H226 lung, in the assay on SN12C renal, in the assay on SNB-75 CNS and with NCI-H23 lung was over 100 µM each time. The TGI with CCRF-CEM leukemia, with 786-0 renal, in the assay on COLO 205 colon, with A549 NSCLC, in the assay on LOX IMVI melanoma and in the assay on NCI-H522 lung was over 100 µM in each case. Also, the TGI in the assay with MALME-3M melanoma, with HT29 colon and in the assay on SW-620 colon was over 100 µM in each case.
In the case of `Cc1ccccc1C(=O)c1c(O)c2c(c(O)c1Br)CCCC2`, the TGI in the assay on HL-60(TB) leukemia was 23 µM; in the assay on IGROV1 ovarian, 42.6 µM; in the assay with NCI-H226 lung, 58.4 µM; in the assay on MOLT-4 leukemia, 31.4 µM; in the assay on SN12C renal it was 33.3 µM; with SNB-75 CNS, 34.8 µM. The TGI worked out at 58.4 µM with NCI-H23 lung; 27.9 µM in the assay with 786-0 renal; 34.2 µM in the assay with COLO 205 colon; 54.1 µM in the assay with A549 NSCLC; 23.4 µM in the assay on NCI-H522 lung; 24.7 µM in the assay on MALME-3M melanoma. Besides, the values for the TGI in the assay on HT29 colon and in the assay with SW-620 colon were 66.6 µM and 34.1 µM, respectively.
Turning to `CCC(C)n1c(C)nc2c1C(=O)c1ccccc1C2=O` (configuration not stated), the TGI in the assay on HL-60(TB) leukemia, in the assay with IGROV1 ovarian, in the assay with NCI-H226 lung, in the assay on MOLT-4 leukemia, with SN12C renal and with SNB-75 CNS was over 100 µM each time. In addition, the TGI in the assay with NCI-H23 lung, in the assay with CCRF-CEM leukemia, with 786-0 renal, in the assay with COLO 205 colon, with A549 NSCLC and in the assay with LOX IMVI melanoma was over 100 µM in each case. Further, the TGI in the assay with NCI-H522 lung is over 100 µM; in the assay with MALME-3M melanoma, 77.9 µM; in the assay on HT29 colon, over 100 µM; in the assay on SW-620 colon, over 100 µM.
As for `CC(=O)OC12/C(=N/O)CCCCCC1c1ccccc12` (configuration not stated), the TGI in the assay on HL-60(TB) leukemia, with NCI-H226 lung, with MOLT-4 leukemia, with SN12C renal, in the assay with SNB-75 CNS and in the assay with NCI-H23 lung was over 100 µM in each case. The TGI in the assay with CCRF-CEM leukemia is 92.3 µM; in the assay on 786-0 renal, over 100 µM; in the assay with COLO 205 colon, over 100 µM; in the assay with A549 NSCLC, over 100 µM; with LOX IMVI melanoma it was over 100 µM; with NCI-H522 lung, 98.9 µM. Moreover, the TGI in the assay with MALME-3M melanoma, with HT29 colon and in the assay with SW-620 colon was over 100 µM each time.
Consider `CN(C)CCOc1cccc2c1C(=O)c1ccccc1C2=O`, for which the TGI in the assay with HL-60(TB) leukemia was 29.4 µM; with IGROV1 ovarian it was 43.4 µM; with NCI-H226 lung it was 22.2 µM; with MOLT-4 leukemia, 21.5 µM; in the assay on SN12C renal it was 37.3 µM; in the assay with SNB-75 CNS, 28.8 µM. In addition, the TGI in the assay on NCI-H23 lung came out at 24 µM; with CCRF-CEM leukemia, 64.9 µM; in the assay on 786-0 renal, 52 µM; in the assay on COLO 205 colon, 16.1 µM; with A549 NSCLC, 45.4 µM; in the assay with LOX IMVI melanoma, 18.6 µM. Besides, the TGI in the assay on NCI-H522 lung was found to be 20.5 µM; in the assay with MALME-3M melanoma, 26.5 µM; in the assay on HT29 colon, 28.7 µM; in the assay with SW-620 colon, 43.7 µM.
In the case of `CCOC(=O)c1cnn2c1ncc1c(=O)n(NC(N)=O)ccc12`, the TGI in the assay with HL-60(TB) leukemia, in the assay on IGROV1 ovarian, in the assay with NCI-H226 lung, in the assay with MOLT-4 leukemia, in the assay on SN12C renal and in the assay with MDA-MB-435 was over 100 µM in each case. In addition, the TGI with SNB-75 CNS, in the assay with NCI-H23 lung, with CCRF-CEM leukemia, in the assay on MDA-N, in the assay with 786-0 renal and in the assay with COLO 205 colon was over 100 µM in each case. In addition, the TGI in the assay with A549 NSCLC, in the assay on LOX IMVI melanoma, with NCI-H522 lung, in the assay on MALME-3M melanoma, in the assay with HT29 colon and in the assay on SW-620 colon was over 100 µM in each case. This compound returned a TGI in the assay with PC-3 prostate of over 100 µM.
Take `Nc1ccc(S(=O)(=O)Nc2nnc(S(N)(=O)=O)s2)cc1`: the TGI in the assay with HL-60(TB) leukemia, in the assay with NCI/ADR-RES ovarian, with NCI-H226 lung, with MOLT-4 leukemia, with MDA-MB-435 and in the assay with SNB-75 CNS was over 100 µM in each case. Also, the TGI in the assay with NCI-H23 lung, in the assay with 786-0 renal, with COLO 205 colon, in the assay on A549 NSCLC, in the assay with LOX IMVI melanoma and in the assay with NCI-H522 lung was over 100 µM in each case. The TGI in the assay with MALME-3M melanoma, in the assay with HT29 colon and with SW-620 colon was over 100 µM in each case.
